Measured values as given in patent US6458382B1, “Nucleic acid transfer complexes” (Mirus Corporation, priority 1999, dated 2002).

Experiments:
[1] = background statement on prior art; cited from earlier work
[2] = system: Sf9 cells; assay: Transfection of Sf9 cells, β-galactosidase reporter (Examples 3, 4); assay type: cell-based, Spodoptera frugiperda; conditions: for Efficiency of detergent added to DOTAP/neutral lipid reagent, in words: transfecting Sf9 cells
Protocol: Sf21 (Spodoptera frugiperda pupal ovarian cells) cells were maintained in TC-100 medium, and High Five or BTI-TN-5BI-4 (Trichoplusia ni embryonic ovarian cells) cells were maintained in Ex-Cell medium at 27° C. in an atmosphere of 5% CO2 in air. S2 (Drosophila melanogaster embryonic cells) were maintained in Shields and Sang M3 medium supplemented with 5% FCS at 25° C. The cells were seeded in a 6-well plate (35 mm culture dishes) 24 h before the transfection at 70% confluence. Before transfection, the cells were washed once or twice with serum-free medium, and placed in 2 ml serum-free medium per 35-mm dish. The liposomes were diluted in 0.15 ml of serum-free medium. Following a 5 minute incubation at room temperature, two μg of plasmid DNA (containing the luciferase or β-galactosidase reporter genes described below) was added, followed by a 5 minute incubation at room temperature prior to being added to the cells in the culture dish. The cells were incubated under the appropriate conditions. After four hours, the transfection mixture was removed and replaced with 2 ml of regular culture medium. […]
The firefly luciferase and E. coli β-galactosidase reporter genes were used to determine the efficiency of DNA transfer quantitatively. […]
For determination of luciferase activity, cells were lysed by the addition of 200 μl of lysis buffer (0.1% Triton X-100, 0.1M K-phosphate, 1 mM DTT, pH 7.8). Ten μl of the cellular extract were analyzed for luciferase activity, using the Enhanced Luciferase Assay kit (Mirus). For determination of β-galactosidase activity, the cells were lysed by the addition of 200 μl of lysis buffer (0.1% Triton X-100, 0.1M K-phosphate, 1 mM DTT, pH 7.8). β-Galactosidase activity was determined using a chemiluminescent assay (Tropix).
Two μg of the β-galactosidase expression vector pIE1HR5/LacZ were transfected into Sf9 cells using TRANSIT-INSECTA, Reagent C (CELLFECTIN from Life Technologies) and Reagent I (INSECTIN-PLUS from Invitrogen). […] Reporter gene expression was determined after 2 days using a chemiluminescent assay (Tropix). […]

[3] = system: insect cells; assay: Transfection of insect cells with DOTAP-based reagent; conditions: insect cell lines grown in vitro (e.g., Sf9, Sf21, High Five, S2)
Text: Addition of detergents increases the efficiency of a transfection reagent. However, the optimal type and amount of detergent vary for different transfection reagents and target cell types. […] In a typical transfection reagent, the DOTAP is mixed with a neutral lipid (e.g., DOPE, cholesterol) to form a liposome. […] Optimal enhancement with DLPE was obtained over a range of 1-10% (weight percentage of total composition of DOTAP, DOPE, and neutral lipid).

With `CCCCCCCCCCCCCCCCCCN` [Stearylamine] as the compound, how does the “cytotoxicity, in words” value [1] read?
The value was “great cytotoxicity”.

For `CCCCCCCCCCCC(=O)OC[C@H](COP(=O)(O)OCCN)OC(=O)CCCCCCCCCCC` [DLPE, dilauroyl phosphatidylethanolamine], which “Efficiency of detergent added to DOTAP/neutral lipid reagent, in words” value [2] is on record?
Its value is “more efficient than addition of CHAPS”.

And the “Range of DLPE giving optimal enhancement of transfection efficiency” value ([2]; weight percentage of total composition of DOTAP, DOPE, and neutral lipid)?
Its value is 1-10%.

For `CCCCCCCCCCCC(=O)OC[C@H](COP(=O)([O-])OCC[N+](C)(C)C)OC(=O)CCCCCCCCCCC` [DLPC, dilauroylphosphatidylcholine], which “Efficiency of detergent added to DOTAP/neutral lipid reagent, in words” value [2] is on record?
The value was “more efficient than addition of CHAPS”.

With `CCCCCCCC/C=C\CCCCCCCC(=O)OCC(C[N+](C)(C)C)OC(=O)CCCCCCC/C=C\CCCCCCCC` (centres unmarked) [DOTAP, 1,2-bis(oleoyloxy)-3-(4′-trimethylammonio)propane] as the compound, how does the “Transfection efficiency for insect cells, in words” value [3] read?
Its value is “efficient transfection reagent”.
